{"source": "paper PMC12736120", "about": "“First-in-Human Phase I Clinical Trial of SLC-391, a Novel and Selective AXL Inhibitor, in Patients with Advanced Solid Tumours” (Pharmaceuticals, 2025)", "origin": "cited, not measured here", "test_system": "TYRO3", "details": "stated in the Introduction, no reference given; read-out: IC50 against TYRO3; cited from earlier work"}
{"smiles": "Nc1ncc(-c2cnn(C3CCNCC3)c2)cc1-c1nnc(CC2CC2)o1", "note": "[SLC-391, 3-(5-[cyclopropylmethyl]-1,3,4-oxadiazol-2-yl)-5-(1-[piperidin-4-yl]-1H-pyrazol-4-yl)-pyridin-2-amine]", "values": [{"measurement": "IC50", "value": 42.3, "unit": "nM"}]}
